# Measurements from the supplement of paper PMC10949913.
# How the values were obtained:
# Test in all cases: area under concentration-response curve (viability) (AUC (a.u.)); higher = less active
# Conditions in all cases: 48 h
# [1] = system: CU-ACC1
# Procedure, shortened: (§1)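 Cells from three adrenocortical carcinoma lines were seeded at 500–1,000 cells/well in 5 µL medium in 1,536-well plates. Each library compound was added as 23 nL at 11 concentrations, and after 48 h CellTiter-Glo was added for 15 minutes at room temperature before reading luminescence. Plate-wise normalisation to vehicle and empty-well controls preceded curve fitting. AC50 and area under the curve were calculated only for inhibitory or non-responding curve classes.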
# [2] = system: CU-ACC2
# Procedure, shortened: as §1
# [3] = system: NCI-H295R
# Procedure, shortened: as §1
structure (smiles),measurement,setting,value
CCc1c(C(=O)C(N)=O)c2c(OCC(=O)O)cccc2n1Cc1ccccc1,area under concentration-response curve,[1],572
same,area under concentration-response curve,[2],599
same,area under concentration-response curve,[3],550
COC1=CC=C(C=C1)/C2=C(O)/C(=O)C3=C(O)C=C(O)C(=C3O2)CC=C(C)C,area under concentration-response curve,[1],415
same,area under concentration-response curve,[2],388
same,area under concentration-response curve,[3],416
COc1ccc2c(c1)CC[C@@H](CN(C)CC(=O)O)[C@H]2c1ccccc1,area under concentration-response curve,[1],487
same,area under concentration-response curve,[2],514
same,area under concentration-response curve,[3],464
O=C1CC[C@H](N2Cc3c(OCc4ccc(CN5CCOCC5)cc4)cccc3C2=O)C(=O)N1,area under concentration-response curve,[1],517
same,area under concentration-response curve,[2],606
same,area under concentration-response curve,[3],552
N=C(N)NC(=N)NCCc1ccccc1,area under concentration-response curve,[1],525
same,area under concentration-response curve,[2],626
same,area under concentration-response curve,[3],573
COC1=C(OCCCOC2=C(OC)C=C3C(=O)N4CC(=C)C[C@H]4\C=N/C3=C2)C=C5\N=C/[C@@H]6CC(=C)CN6C(=O)C5=C1,area under concentration-response curve,[1],320
same,area under concentration-response curve,[2],404
same,area under concentration-response curve,[3],444
COC1=C(N2CCNC(C)C2)C(=CC3=C1N(\C=C(C(O)=O)/C3=O)C4CC4)F (centres undefined),area under concentration-response curve,[1],543
same,area under concentration-response curve,[2],609
same,area under concentration-response curve,[3],509
CCCCOC(=O)N[S+](=O)([O-])c1sc(CC(C)C)cc1-c1ccc(Cn2ccnc2)cc1,area under concentration-response curve,[1],357
same,area under concentration-response curve,[2],412
same,area under concentration-response curve,[3],460
CC(=O)N1CCN(c2ccc(NC(=O)Cc3cnc(-c4ccnc(F)c4)c(C)c3)nc2)CC1,area under concentration-response curve,[1],550
same,area under concentration-response curve,[2],643
same,area under concentration-response curve,[3],582
CC(C)(NC(=O)O[C@@H]1CN2CCC1CC2)c1csc(-c2ccc(F)cc2)n1,area under concentration-response curve,[1],479
same,area under concentration-response curve,[2],477
same,area under concentration-response curve,[3],480
C=C1C(=O)OC(CCCCCCCC)C1C(=O)O (centres undefined),area under concentration-response curve,[1],409
same,area under concentration-response curve,[2],457
same,area under concentration-response curve,[3],437
Cc1ncc([N+](=O)[O-])n1CC(C)O (centres undefined),area under concentration-response curve,[1],554
same,area under concentration-response curve,[2],644
same,area under concentration-response curve,[3],566
Cc1ccnc(N[S+](=O)([O-])c2ccc(NC(=O)Nc3ccc([S+](=O)([O-])Nc4nccc(C)n4)cc3)cc2)n1,area under concentration-response curve,[1],499
same,area under concentration-response curve,[2],566
same,area under concentration-response curve,[3],537
O=C1NC(O)CCN1[C@@H]1O[C@H](CO)[C@@H](O)[C@H]1O (some centres undefined),area under concentration-response curve,[1],539
same,area under concentration-response curve,[2],646
same,area under concentration-response curve,[3],585
CC(C)(C)[S+](=O)([O-])c1ccc2nccc(Nc3n[nH]c4ccc(F)cc34)c2c1,area under concentration-response curve,[1],526
same,area under concentration-response curve,[2],627
same,area under concentration-response curve,[3],561
CNC(=O)Cn1cc(-c2ccc3c(c2)C(F)CC32NC(=O)N(CC(=O)N(Cc3ccc(F)cc3)[C@@H](C)C(F)(F)F)C2=O)cn1 (some centres undefined),area under concentration-response curve,[1],517
same,area under concentration-response curve,[2],549
same,area under concentration-response curve,[3],504
Cc1ccc(O)c(C(CCN(C(C)C)C(C)C)c2ccccc2)c1.Cl (centres undefined),area under concentration-response curve,[1],491
same,area under concentration-response curve,[2],625
same,area under concentration-response curve,[3],558
CC(C)(CNC(=O)c1cccc(-c2noc(C(F)(F)F)n2)c1)c1coc(-c2ccccc2)n1,area under concentration-response curve,[1],558
same,area under concentration-response curve,[2],585
same,area under concentration-response curve,[3],506
CN[C@@H](C)C(=O)N[C@H](C(=O)N1CCC[C@H]1C(=O)Nc1sc(-c2ncco2)nc1-c1ccccc1)C1CCCCC1,area under concentration-response curve,[1],457
same,area under concentration-response curve,[2],530
same,area under concentration-response curve,[3],461
C[C@]\12CC[C@H](O)CC1=C/C[C@@H]3[C@@H]2CC[C@@]\4(C)[C@H]3C\C=C4C5=CN=CC=C5,area under concentration-response curve,[1],522
same,area under concentration-response curve,[2],588
same,area under concentration-response curve,[3],509
CC(C)(C)NCC(O)c1ccc(O)c(CO)c1 (centres undefined),area under concentration-response curve,[1],504
same,area under concentration-response curve,[2],598
same,area under concentration-response curve,[3],567
O=C(CN1C(=O)C2(CCCC2)NC[C@H]1c1cc(F)cc(F)c1)Nc1ccc2c(c1)C[C@@]1(C2)C(=O)Nc2ncccc21,area under concentration-response curve,[1],463
same,area under concentration-response curve,[2],565
same,area under concentration-response curve,[3],515
O=C1NC(=O)/C(=C/c2ccc3nccnc3c2)S1,area under concentration-response curve,[1],452
same,area under concentration-response curve,[2],443
same,area under concentration-response curve,[3],496
CO[C@H]1/C=C/O[C@@]2(C)Oc3c(C)c(O)c4c(O)c(c(/C=N/N5CCN(C)CC5)c(O)c4c3C2=O)NC(=O)/C(C)=C\C=C\[C@H](C)[C@H](O)[C@@H](C)[C@@H](O)[C@@H](C)[C@H](OC(C)=O)[C@@H]1C,area under concentration-response curve,[1],550
same,area under concentration-response curve,[2],624
same,area under concentration-response curve,[3],560
C[C@]12CC[C@H]3[C@@H](CCC4=CC(=O)CC[C@@H]43)[C@@H]1CC[C@@H]2OC(=O)CCc1ccccc1,area under concentration-response curve,[1],461
same,area under concentration-response curve,[2],534
same,area under concentration-response curve,[3],498
CC/1=C2/N(C(=O)C(=C1)/NC3=CC(=NC=N3)N)C4(CCCCC4)NC2=O,area under concentration-response curve,[1],594
same,area under concentration-response curve,[2],641
same,area under concentration-response curve,[3],537
CC\1=C(C(\N=C(/N1)C2=CC(=NC=C2)Cl)C3=C(F)C=C(Cl)C=C3)/C(=O)NC4=C(F)C=C5[NH]N=CC5=C4 (centres undefined),area under concentration-response curve,[1],492
same,area under concentration-response curve,[2],466
same,area under concentration-response curve,[3],488
N#Cc1ccc(C(c2ccc(C#N)cc2)n2cncn2)cc1,area under concentration-response curve,[1],488
same,area under concentration-response curve,[2],428
same,area under concentration-response curve,[3],516
O=C(O)c1ccc(CN2CCC(CN[C@@H]3C[C@H]3c3ccccc3)CC2)cc1,area under concentration-response curve,[1],465
same,area under concentration-response curve,[2],540
same,area under concentration-response curve,[3],490
COc1cc2ncnc(Nc3cc(Br)c(O)c(Br)c3)c2cc1OC,area under concentration-response curve,[1],523
same,area under concentration-response curve,[2],650
same,area under concentration-response curve,[3],581
NC/1=N/C(=O)N(/C=N1)[C@@H]2O[C@H](CO)[C@@H](O)[C@H]2O,area under concentration-response curve,[1],469
same,area under concentration-response curve,[2],522
same,area under concentration-response curve,[3],504
Oc1nc(-c2ccc(C(F)(F)F)cc2)nc2c1CSCC2,area under concentration-response curve,[1],511
same,area under concentration-response curve,[2],509
same,area under concentration-response curve,[3],483
NNCCc1ccccc1.O=S(=O)(O)O,area under concentration-response curve,[1],450
same,area under concentration-response curve,[2],530
same,area under concentration-response curve,[3],486
CC(C)(CO)[C@@H](O)C(=O)NCCC(=O)O,area under concentration-response curve,[1],506
same,area under concentration-response curve,[2],487
same,area under concentration-response curve,[3],509
CN1\C(=C(\O)C2=C(C=CC=C2)[S+]1([O-])=O)C(=O)NC3=CC=CC=N3,area under concentration-response curve,[1],432
same,area under concentration-response curve,[2],495
same,area under concentration-response curve,[3],464
Clc1ccc2ncc(-c3cccc(NC4CNC4)n3)n2c1,area under concentration-response curve,[1],522
same,area under concentration-response curve,[2],644
same,area under concentration-response curve,[3],576
CCCC1=NC(=C2[N]1NC(=N\C2=O)/C3=CC(=CC=C3OCC)[S+]([O-])(=O)N4CCN(CC)CC4)C,area under concentration-response curve,[1],462
same,area under concentration-response curve,[2],573
same,area under concentration-response curve,[3],518
COc1cc2ncnc(Nc3ccc(F)c(Cl)c3)c2cc1OCCCN1CCOCC1,area under concentration-response curve,[1],562
same,area under concentration-response curve,[2],624
same,area under concentration-response curve,[3],594
C[C@H]1C[C@H]2[C@@H]3CC\C4=C\C(=O)\C=C/[C@]4(C)[C@H]3C(=O)C[C@]2(C)[C@@]1(O)C(=O)CO,area under concentration-response curve,[1],511
same,area under concentration-response curve,[2],618
same,area under concentration-response curve,[3],488
CC(C)Cc1ccc([C@@H](C)C(=O)N[S+](C)(=O)[O-])cc1,area under concentration-response curve,[1],492
same,area under concentration-response curve,[2],586
same,area under concentration-response curve,[3],553
NC12CC3CC(CC(C3)C1)C2,area under concentration-response curve,[1],466
same,area under concentration-response curve,[2],509
same,area under concentration-response curve,[3],523
C\C1=N\N(C(=O)C1)C2=CC=CC=C2,area under concentration-response curve,[1],492
same,area under concentration-response curve,[2],585
same,area under concentration-response curve,[3],478
CNC[C@H](O)c1cccc(O)c1,area under concentration-response curve,[1],440
same,area under concentration-response curve,[2],508
same,area under concentration-response curve,[3],449
CC(C)C/1=C(NC2=C(C=N[N]2C1=O)C#N)\C3=CC=CC=C3,area under concentration-response curve,[1],497
same,area under concentration-response curve,[2],580
same,area under concentration-response curve,[3],480
Cc1nc2c([nH]1)-c1ccccc1N(C(=O)c1ccc(NC(=O)c3ccccc3-c3ccccc3)cc1)CC2,area under concentration-response curve,[1],437
same,area under concentration-response curve,[2],542
same,area under concentration-response curve,[3],487
CCCCn1c(=O)n(Cc2ccccc2F)c(=O)c2nc(Cc3ccc(NC(C)=O)cc3)[nH]c21,area under concentration-response curve,[1],491
same,area under concentration-response curve,[2],543
same,area under concentration-response curve,[3],531
Cc1nnc(C(C)C)n1C1CC2CCC(C1)N2CC[C@H](NC(=O)C1CCC(F)(F)CC1)c1ccccc1 (some centres undefined),area under concentration-response curve,[1],561
same,area under concentration-response curve,[2],533
same,area under concentration-response curve,[3],559
CN(C)[S+](=O)([O-])c1ccc2c(c1)C(=Cc1cc3c([nH]1)CCCC3)C(=O)N2,area under concentration-response curve,[1],594
same,area under concentration-response curve,[2],655
same,area under concentration-response curve,[3],576
